Results taken from patent publication US20250152585A1, “PHARMACEUTICAL COMPOUND” (Duke Street Bio Limited, priority 2022, published 2025).
Where two headings read alike, the source gives them in different places.

Experiments:
[1] = target: T1, full length N-terminally FLAG-tagged PARP1 (Homo sapiens, UniProt P09874); experiment: PARP1 biochemical DELFIA assay (auto-PARylation); design: recombinant full length human N-terminally FLAG-tagged PARP1
[2] = target: T2, N-terminally FLAG-tagged PARP2 (amino acids 1-583) (Homo sapiens, UniProt Q9UGN5); experiment: PARP2 probe displacement HTRF assay; format: binding; conditions: binned Kd
T2 construct: N-terminally FLAG-tagged PARP2 (amino acids 1-583)
T2 sequence (Q9UGN5 whole entry, the tested form may be a part): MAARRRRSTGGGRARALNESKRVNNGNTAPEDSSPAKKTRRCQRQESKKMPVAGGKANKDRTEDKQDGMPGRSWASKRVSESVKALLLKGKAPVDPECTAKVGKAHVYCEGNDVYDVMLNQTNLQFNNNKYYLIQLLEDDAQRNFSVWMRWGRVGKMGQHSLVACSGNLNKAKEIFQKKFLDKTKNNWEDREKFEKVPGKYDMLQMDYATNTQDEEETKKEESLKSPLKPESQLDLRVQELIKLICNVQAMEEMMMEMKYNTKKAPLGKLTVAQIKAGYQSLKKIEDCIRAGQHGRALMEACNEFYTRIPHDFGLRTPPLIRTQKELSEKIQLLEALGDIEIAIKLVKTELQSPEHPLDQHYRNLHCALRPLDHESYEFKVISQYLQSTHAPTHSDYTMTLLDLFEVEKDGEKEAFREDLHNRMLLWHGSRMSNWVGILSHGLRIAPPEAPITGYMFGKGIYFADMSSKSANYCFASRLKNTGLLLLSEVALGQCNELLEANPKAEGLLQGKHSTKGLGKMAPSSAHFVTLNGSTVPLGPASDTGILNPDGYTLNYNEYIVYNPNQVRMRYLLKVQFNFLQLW
Procedure: Data analysis was performed identical as for PARP1.

[3] = target: T1, full length N-terminally FLAG-tagged PARP1; experiment: PARP1 probe displacement HTRF assay; conditions: for Selectivity: PARP1 over PARP2, ratio Kd (PARP2)/Kd (PARP1); for Kd: binned Kd
[4] = binned IC50, PARP1 biochemical DELFIA assay
[5] = read-out: PARP1 HTRF, PARP1 probe displacement HTRF
[6] = binned IC50, biochemical auto-PARylation assay
[7] = read-out: PARP1 HTRF, probe displacement HTRF
[8] = PARP1 HTRF, PARP1 probe displacement HTRF

T1 sequence (P09874 whole entry, the tested form may be a part): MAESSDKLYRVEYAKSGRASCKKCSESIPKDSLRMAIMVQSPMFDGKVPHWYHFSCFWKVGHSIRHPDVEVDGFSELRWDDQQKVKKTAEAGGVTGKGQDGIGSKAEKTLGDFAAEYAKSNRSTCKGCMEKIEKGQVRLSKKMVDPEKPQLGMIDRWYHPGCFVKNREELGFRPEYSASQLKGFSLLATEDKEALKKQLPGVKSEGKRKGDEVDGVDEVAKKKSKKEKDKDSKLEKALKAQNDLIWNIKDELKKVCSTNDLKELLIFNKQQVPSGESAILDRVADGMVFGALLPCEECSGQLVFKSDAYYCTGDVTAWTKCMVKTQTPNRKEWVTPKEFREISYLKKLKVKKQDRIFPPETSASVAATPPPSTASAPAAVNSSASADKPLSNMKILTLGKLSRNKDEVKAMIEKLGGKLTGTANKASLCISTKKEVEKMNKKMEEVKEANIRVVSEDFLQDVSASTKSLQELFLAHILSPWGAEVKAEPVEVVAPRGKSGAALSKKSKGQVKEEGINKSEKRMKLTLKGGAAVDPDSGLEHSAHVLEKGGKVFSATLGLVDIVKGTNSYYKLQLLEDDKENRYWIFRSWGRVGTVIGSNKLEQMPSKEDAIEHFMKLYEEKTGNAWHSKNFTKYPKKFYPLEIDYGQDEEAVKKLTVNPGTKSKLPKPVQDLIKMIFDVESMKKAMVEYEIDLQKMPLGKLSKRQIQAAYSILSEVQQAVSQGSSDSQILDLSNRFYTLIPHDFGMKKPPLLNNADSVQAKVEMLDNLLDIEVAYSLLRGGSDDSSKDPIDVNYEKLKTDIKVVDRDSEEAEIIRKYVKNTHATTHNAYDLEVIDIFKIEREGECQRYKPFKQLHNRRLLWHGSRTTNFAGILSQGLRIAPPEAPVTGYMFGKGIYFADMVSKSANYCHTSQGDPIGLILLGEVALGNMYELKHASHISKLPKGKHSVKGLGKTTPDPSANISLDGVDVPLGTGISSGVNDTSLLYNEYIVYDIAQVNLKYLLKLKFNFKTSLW

SMILES | IC50 [1, 4] [nM] | Kd ([2]; PARP2 probe displacement HTRF) [nM] | Selectivity ([3]; probe displacement HTRF) | Kd [3, 5] [nM] | IC50 [1, 6] [nM] | Kd ([2]; probe displacement HTRF) [nM] | Kd [3, 7] [nM] | Kd [3, 8] [nM] | Kd ([3]; PARP1 HTRF, probe displacement HTRF) [nM]
CNC(=O)c1ccc(N2CCC(N3CCCC(c4ncc(C(F)(F)F)c(=O)[nH]4)C3)CC2)cn1 (single isomer, unassigned) [Compound 73b] | 10 to 100 | > 10000 | ++ (++ indicates a value of 50 to less than 100) | 10 to 100 | – | – | – | – | –
CNC(=O)c1ccc(N2CCC(N3CCC(c4[nH]c(=O)c5ccccc5c4C)C3)CC2)cn1 (racemic) [Compound 237rac] | – | – | ++ (++ indicates a value of 50 to less than 100) | – | < 10 | 10 to 100 | < 10 | – | –
CNC(=O)c1ccc(N2CC(CN3CCC(c4nc5ccccc5c(=O)[nH]4)CC3)C2)cn1 [Compound 45] | < 10 | 100 to 1000 | +++ (+++ indicate a value of at least 100) | – | – | – | – | < 10 | –
CNC(=O)c1ccc(N2CCC(N3CCC(c4nc5c(c(C(F)(F)F)nn5C)c(=O)[nH]4)C3)CC2)cn1 (single isomer, unassigned) [Compound 187b] | < 10 | < 10 | − (− indicates a value of less than 10) | < 10 | – | – | – | – | –
CNC(=O)c1ccc(N2CCC(N3CCC(c4cc5cccc(F)c5c(=O)[nH]4)C3)CC2)c(C#N)c1 (single isomer, unassigned) [Compound 345a] | – | – | +++ (+++ indicate a value of at least 100) | – | < 10 | 100 to 1000 | < 10 | – | –
NC(=O)c1ccc(N2CCC(N3CCCC(c4nc5ccccc5c(=O)[nH]4)C3)CC2)cn1 (single isomer, unassigned) [Compound 109b] | 10 to 100 | 1000 to 10000 | + (+ indicates a value of 10 to less than 50) | 100 to 1000 | – | – | – | – | –
CS(=O)(=O)NC(=O)c1ccc(N2CCC(N3CCC(c4cc5ccccc5c(=O)[nH]4)C3)CC2)cn1 (racemic) [Compound 414rac] | – | – | ++ (++ indicates a value of 50 to less than 100) | – | 10 to 100 | 100 to 1000 | 10 to 100 | – | –
N#Cc1ccc(N2CCC(N3CCC(c4nc5ccccc5c(=O)[nH]4)C3)CC2)cn1 (single isomer, unassigned) [Compound 69a] | < 10 | 100 to 1000 | ++ (++ indicates a value of 50 to less than 100) | 10 to 100 | – | – | – | – | –
N#Cc1ccc(N2CCC(N3CCC(c4cc5ccc(F)cc5c(=O)[nH]4)C3)CC2)c(Cl)c1 (single isomer, unassigned) [Compound 386a] | – | – | +++ (+++ indicate a value of at least 100) | – | < 10 | 100 to 1000 | < 10 | – | –
CNC(=O)c1ccc(N2CCC(N3CCC(c4cc5ccc(F)cc5c(=O)[nH]4)C3)CC2)cc1F (single isomer, unassigned) [Compound 270b] | – | – | + (+ indicates a value of 10 to less than 50) | – | < 10 | 10 to 100 | < 10 | – | –
CNC(=O)c1ccc(N2CCC(N3CCC(c4nc5ccc(F)c(F)c5c(=O)[nH]4)C3)CC2)cn1 (single isomer, unassigned) [Compound 222a] | – | – | + (+ indicates a value of 10 to less than 50) | – | < 10 | 100 to 1000 | < 10 | – | –
CNC(=O)c1ccc(N2CCC(N3CCC(c4cc5ccc(Cl)cc5c(=O)[nH]4)C3)CC2)cn1 (single isomer, unassigned) [Compound 129a] | < 10 | 1000 to 10000 | +++ (+++ indicate a value of at least 100) | < 10 | – | – | – | – | –
CCc1ccc(C2CCN(C3CCN(c4ccc(C#N)nc4)CC3)C2)[nH]c1=O (single isomer, unassigned) [Compound 326a] | – | – | + (+ indicates a value of 10 to less than 50) | – | 100 to 1000 | 1000 to 10000 | 100 to 1000 | – | –
CNC(=O)c1ccc(N2CCC(N3CCC(c4nc5ccc(Cl)cc5c(=O)[nH]4)C3)CC2)cn1 (racemic) [Compound 49rac] | < 10 | 100 to 1000 | +++ (+++ indicate a value of at least 100) | < 10 | – | – | – | – | –
CNC(=O)c1ccc(N2CCC(N3CCC(c4cc5c(c(=O)[nH]4)COCC5)C3)CC2)cn1 (racemic) [Compound 405rac] | – | – | +++ (+++ indicate a value of at least 100) | – | < 10 | 100 to 1000 | < 10 | – | –
CCCc1ccc(C2CCN(C3CCN(c4ccc(C(=O)NC)nc4F)CC3)C2)[nH]c1=O (single isomer, unassigned) [Compound 269b] | – | – | + (+ indicates a value of 10 to less than 50) | – | 100 to 1000 | > 10000 | 100 to 1000 | – | –
CC(=O)Nc1ccc(N2CCC(N3CCC(c4nc5ccccc5c(=O)[nH]4)C3)CC2)cn1 (single isomer, unassigned) [Compound 220b] | – | – | + (+ indicates a value of 10 to less than 50) | – | 10 to 100 | 1000 to 10000 | 10 to 100 | – | –
CNC(=O)c1ccc(N2CCC(N3CCC(c4nc5ccccc5c(=O)[nH]4)C3)CC2)c(C)n1 (single isomer, unassigned) [Compound 125a] | < 10 | 1000 to 10000 | +++ (+++ indicate a value of at least 100) | < 10 | – | – | – | – | –
O=C(NCCF)c1ccc(N2CCC(N3CCCC(c4nc5ccccc5c(=O)[nH]4)C3)CC2)cn1 (single isomer, unassigned) [Compound 110b] | 100 to 1000 | 100 to 1000 | − (− indicates a value of less than 10) | 10 to 100 | – | – | – | – | –
CNC(=O)c1ccc(N2CCC(N3CCC(c4nc5c(c(=O)[nH]4)CCC5)C3)CC2)cn1 (single isomer, unassigned) [Compound 283b] | – | – | +++ (+++ indicate a value of at least 100) | – | < 10 | 1000 to 10000 | < 10 | – | –
CNC(=O)c1ccc(N2CCC(N3CCC(c4nc5c(Cl)cccc5c(=O)[nH]4)C3)CC2)cn1 (single isomer, unassigned) [Compound 52a, 5-(4-(3-(8-chloro-4-oxo-3,4-dihydroquinazolin-2-yl)pyrrolidin-1-yl)piperidin-1-yl)-N-methylpicolinamide] | 10 to 100 | 100 to 1000 | − (− indicates a value of less than 10) | – | – | – | – | 10 to 100 | –
CNC(=O)c1ccc(N2CCC(N3CCC(c4nc5sc(C)c(C)c5c(=O)[nH]4)C3)CC2)cn1 (single isomer, unassigned) [Compound 221a] | – | – | + (+ indicates a value of 10 to less than 50) | – | 10 to 100 | 100 to 1000 | 10 to 100 | – | –
CNC(=O)c1ccc(N2CCC(N3CCC(c4nc5ccc(F)cc5c(=O)[nH]4)C3)CC2)cn1 (single isomer, unassigned) [Compound 64a] | < 10 | 100 to 1000 | + (+ indicates a value of 10 to less than 50) | < 10 | – | – | – | – | –
CNC(=O)c1ccc(N2CCC(N3CCC(c4cc5c(c(=O)[nH]4)CCCC5)C3)CC2)cn1 (racemic) [Compound 336rac] | – | – | ++ (++ indicates a value of 50 to less than 100) | – | < 10 | 10 to 100 | < 10 | – | –
O=c1[nH]c(C2CCN(C3CCN(c4ccccc4)CC3)C2)nc2ccccc12 (single isomer, unassigned) [Compound 32a] | 10 to 100 | 1000 to 10000 | + (+ indicates a value of 10 to less than 50) | 10 to 100 | – | – | – | – | –
CNC(=O)c1ccc(N2CCC(N3CCC(C)(c4nc5ccccc5c(=O)[nH]4)C3)CC2)cn1 (single isomer, unassigned) [Compound 67a] | 100 to 1000 | 1000 to 10000 | + (+ indicates a value of 10 to less than 50) | 100 to 1000 | – | – | – | – | –
CCN1CCCc2c1nc(C13CC(C1)N(C1CCN(c4ccc(C(=O)NC)nc4F)CC1)C3)[nH]c2=O [Compound 384] | – | – | + (+ indicates a value of 10 to less than 50) | – | < 10 | 100 to 1000 | – | – | < 10
